Data as given in patent publication US20260207600A1, “METHODS OF TREATMENT WITH MYOSIN MODULATOR” (MYOKARDIA, INC., priority 2019, published 2026).
≈ marks a conversion by molar mass, not a printed value. Entries after “also recorded” stand apart in the source; their conditions may differ. Read-outs that look alike come from different tables or passages of the source.

Assays:
[1] = tested on: subjects with obstructive HCM; details: human, in vivo; cited from earlier work
[2] = tested on: subjects with symptomatic non-obstructive hypertrophic cardiomyopathy (nHCM); experiment: […]-HCM Phase 2 randomized, double-blind, placebo-controlled, concentration-guided study; format: in vivo, human; details: baseline and week 16
[3] = target: CYP2C9 (Homo sapiens, UniProt P11712); experiment: In vitro contribution of CYP enzymes to mavacamten metabolism; format: in vitro ADME
[4] = Half-life and clearance analysis from early clinical studies by CYP2C19 metabolizer phenotype; format: in vivo, human; details: for half-life / clearance: oral; for clearance: read-out: clearance rate
Method: The effect of CYP2C19 phenotype and genotype on the metabolism function of the CYP2C19 enzyme has been presently investigated. […] Specifically, normal metabolizers typically have a half-life of from about 6 to about 9 days, e.g., about 7 days (1 week), whereas poor metabolizers have a longer half-life, e.g., from about 12 to about 30 days, or often from about 16 to about 28 days based on current data in humans.
Half-life and clearance rate were analyzed after a single oral dose. Clearance rate was calculated as CL=Dose*F/AUCinf. […] Half-life and clearance rate were analyzed after the last dose upon reaching steady state. Clearance rate was calculated as CL,ss=Dose*F/AUC(0-T). Both trials were combined and analyzed by one-way ANOVA, followed by Tukey's multiple comparison test.
UM (rapid/ultra-rapid metabolizer) is *1/*17 or *17/*17; EM (extensive metabolizer) is *1/*1; IM (intermediate metabolizer) is *1/*2 or *17/*2; and PM (poor metabolizer) is *2/*2 or *2/*3.
Similar studies were performed for CYP3A5 and CYP2C9 polymorphisms.

[5] = Solubility estimates at ambient temperature; format: physicochemical; details: thermodynamic from solid, Form A (Lot 2-4), read-out: Solubility (estimate)
Method: Solubilities were calculated based on the total solvent used to give a solution; actual solubilities may be greater because of the volume of solvent portions utilized or a slow rate of dissolution. […] If dissolution occurred at the first aliquot, the value was reported as “>”.
Solubility estimates at ambient temperature were performed in 25 solvents and solvent systems using Form A (Lot 2-4) (Table 13.3).

[6] = human, in vivo, CYP2C19 normal metabolizers
[7] = human, in vivo, CYP2C19 poor metabolizers

CYP2C9, sequence (P11712 whole entry): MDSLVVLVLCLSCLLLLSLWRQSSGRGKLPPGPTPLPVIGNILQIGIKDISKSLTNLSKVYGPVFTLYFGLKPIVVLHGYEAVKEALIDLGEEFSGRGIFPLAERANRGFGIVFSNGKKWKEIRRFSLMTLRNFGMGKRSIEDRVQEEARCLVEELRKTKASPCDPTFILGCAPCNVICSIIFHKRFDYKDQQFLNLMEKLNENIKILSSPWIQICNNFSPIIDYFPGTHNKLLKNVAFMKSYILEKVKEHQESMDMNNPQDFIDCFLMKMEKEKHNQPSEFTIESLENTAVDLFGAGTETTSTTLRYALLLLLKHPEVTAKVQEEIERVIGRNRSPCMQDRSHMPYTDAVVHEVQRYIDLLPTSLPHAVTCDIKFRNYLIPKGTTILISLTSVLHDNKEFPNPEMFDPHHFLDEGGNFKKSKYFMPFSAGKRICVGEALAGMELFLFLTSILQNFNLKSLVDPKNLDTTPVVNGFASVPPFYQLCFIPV

Compound: CC(C)n1c(=O)cc(N[C@@H](C)c2ccccc2)[nH]c1=O [mavacamten, (S)-3-Isopropyl-6-((1-phenylethyl)amino)pyrimidine-2, 4(1H,3H)-dione]
- Obstruction of the left ventricular outflow tract [1]: reduced or eliminated the obstruction of the left ventricular outflow tract
- hs-cTnI, post-hoc analysis of banked serum samples [2]: confirmed the reduction in cTnI
- percent contribution to the metabolism of mavacamten [3]: 7.5%
- clearance and terminal half-life by phenotype ([4]; CYP2C19 poor metabolizers vs other patients (UM, EM and IM)): lower clearance and longer terminal half-life
- increase in exposure ([4]; PM genotype compared to normal CYP 2C19 metabolizer (NM) genotype): approximately 4 fold
- effect of CYP3A4/5 (CYP3A5) and CYP2C9 polymorphisms on pharmacokinetics (half-life, clearance rate) ([4]; human, in vivo): insignificant effects; also recorded: did not have a significant effect
- half-life [4, 6]: 6 to 9 days
- clearance [4, 6]: 10 to 100 mL/min
- half-life [4, 7]: 12 to 30 days
- clearance [4, 7]: < 15 mL/min
- solubility ([5]; aqueous with cosolvent or surfactant or cyclodextrin, DMSO:water (50:50)): < 1 mg/mL
- solubility ([5]; aqueous with cosolvent or surfactant or cyclodextrin, MeOH:water (50:50)): < 1 mg/mL
- solubility ([5]; organic solvent or mixture, Anisole): < 1 mg/mL
- solubility ([5]; organic solvent or mixture, DMF:CHCl3 (90:10)): ~27 mg/mL (≈ 98.8 mM)
- solubility ([5]; organic solvent or mixture, DMF:EtOAc (80:20)): ~27 mg/mL (≈ 98.8 mM)
- solubility ([5]; organic solvent or mixture, DMF:EtOH (75:25)): ~28 mg/mL (≈ 102 mM)
- solubility ([5]; organic solvent or mixture, DMF:anisole (90:10)): ~28 mg/mL (≈ 102 mM)
- solubility ([5]; organic solvent or mixture, DMF:iPrOH (80:20)): ~43 mg/mL (≈ 157 mM)
- solubility ([5]; organic solvent or mixture, DMF:toluene (90:10)): ~42 mg/mL (≈ 154 mM)
- solubility ([5]; organic solvent or mixture, DMSO:p-dioxane (80:20)): > 42 mg/mL
- solubility ([5]; organic solvent or mixture, DMSO:water (90:10)): ~5 mg/mL (≈ 18.3 mM)
- solubility ([5]; organic solvent or mixture, HFIPA): > 60 mg/mL
- solubility ([5]; organic solvent or mixture, HFIPA:water (90:10)): ~28 mg/mL (≈ 102 mM)
- solubility ([5]; organic solvent or mixture, MIBK): < 1 mg/mL
- solubility ([5]; organic solvent or mixture, MeOH): ~2 mg/mL (≈ 7.32 mM)
- solubility ([5]; organic solvent or mixture, MeOH:water (90:10)): < 1 mg/mL
- solubility ([5]; organic solvent or mixture, NMP:EtOAc (80:20)): ~45 mg/mL (≈ 165 mM)
- solubility ([5]; organic solvent or mixture, NMP:MeOH (75:25)): ~38 mg/mL (≈ 139 mM)
- solubility ([5]; organic solvent or mixture, NMP:toluene (80:20)): ~27 mg/mL (≈ 98.8 mM)
- solubility ([5]; organic solvent or mixture, NMP:water (90:10)): ~23 mg/mL (≈ 84.1 mM)
- solubility ([5]; organic solvent or mixture, THF): ~2 mg/mL (≈ 7.32 mM)
- solubility ([5]; organic solvent or mixture, THF:water (90:10)): ~13 mg/mL (≈ 47.6 mM)
- solubility ([5]; organic solvent or mixture, iPrOH): < 1 mg/mL
- solubility ([5]; organic solvent or mixture, nitromethane): < 1 mg/mL
- solubility ([5]; organic solvent or mixture, toluene): < 1 mg/mL
